Source: publication PMC6768323, “Adverse Maternal, Fetal, and Postnatal Effects of Hexafluoropropylene Oxide Dimer Acid (GenX) from Oral Gestational Exposure in Sprague-Dawley Rats” (Environmental Health Perspectives, 2019)
“And” between values parts separate entries of the source, which are not always exact repeats. Equal values may be shown once.

Assays:
fetal testis = test: Ex vivo fetal testis testosterone production; assay type: in vivo, Sprague-Dawley rats; details: any dose
Procedure: For the first two blocks, spanning the full dose range, late gestation (GD18) dams were euthanized by decapitation at ∼2h after the final oral dose [ ∼0830–1000 hours Eastern Standard Time (EST)]. Trunk blood was collected and serum isolated via centrifugation ( 10,000×g for 15 min at 4°C) in vacutainer tubes, transferred to 1.5-mL microcentrifuge tubes and stored at −80°C . Dam liver weight was recorded and a sample of liver tissue was collected into a polypropylene microcentrifuge tube containing 500μL TRIzol Reagent (Invitrogen) on ice. Fetuses were removed and two randomly selected fetuses per litter were weighed. […] Ex vivo fetal testis testosterone production was measured as previously reported ([Wilson et al. 2004b]) except the radioimmunoassay (RIA) utilized here was supplied by ALPCO (Catalog No. 72-TESTO-CT2, ALPCO). […]
Fetal testis testosterone production was normalized to the mean control concentration within a given block and analyzed as percentage of control values across blocks. Maternal liver weight was analyzed using body weight as a covariate within PROC GLM followed by pairwise comparison using LSMEANS, this analysis produces linear regressions of body weight versus liver weight for each dose group. […]

[1] = tested on: PPAR signaling pathway genes, fetal liver; test: Fetal liver (GD18) PPAR gene array, fold induction versus control; maternal oral dosing GD14-18; rows per gene in dose order 1, 3, 10, 30, 62.5, 125, 250, 500 mg/kg/d; assay type: in vivo, Sprague-Dawley rats
Procedure: A total of three blocks of 15 dams per block were dosed once daily from GD14–18 with either water vehicle (control) or HFPO-DA to evaluate fetal and maternal effects (Figure 1A). The first block of dams was dosed with control, 62.5, 125, 250, or 500mg/kg HFPO-DA ( n=3 dams for each). The second and third blocks of dams were dosed with control, 1, 3, 10, or 30mg/kg HFPO-DA ( n=3 per dose per block). Total sample sizes were n=9 for control, n=6 for 1, 3, 10, 30mg/kg , and n=3 for 62.5, 125, 250, and 500mg/kg HFPO-DA. In the first two blocks, spanning the entire dose range, we evaluated fetal testis testosterone production, fetal testis gene expression, fetal and maternal liver gene expression, fetal body weight, and maternal serum thyroid hormone and lipid concentrations. In the third block, encompassing the lower dose range utilized here, we collected fetal plasma for measuring HFPO-DA concentrations. Across all three blocks we evaluated maternal weight gain during dosing, reproductive output (number of fetuses and resorptions), maternal serum HFPO-DA concentration, and maternal liver weight at necropsy.
For the first two blocks, spanning the full dose range, late gestation (GD18) dams were euthanized by decapitation at ∼2h after the final oral dose [ ∼0830–1000 hours Eastern Standard Time (EST)]. Trunk blood was collected and serum isolated via centrifugation ( 10,000×g for 15 min at 4°C) in vacutainer tubes, transferred to 1.5-mL microcentrifuge tubes and stored at −80°C . Dam liver weight was recorded and a sample of liver tissue was collected into a polypropylene microcentrifuge tube containing 500μL TRIzol Reagent (Invitrogen) on ice. Fetuses were removed and two randomly selected fetuses per litter were weighed. Fetal testes were collected from all male pups with a single testis from the first three males used for determination of ex vivo testosterone production and the remaining testes were homogenized and preserved in TRIzol Reagent for gene expression analysis. The liver was collected from a single, randomly selected fetus per dam/litter for gene expression analysis and transferred to a polypropylene microcentrifuge tube containing 500μL TRIzol Reagent (Invitrogen) on ice. Both dam and fetal liver samples were individually homogenized using a Bullet Blender (Next Advance) with 1-mm zirconium oxide beads, transferred to clean tubes, and stored at −80°C prior to RNA extraction (see below). Ex vivo fetal testis testosterone production was measured as previously reported ([Wilson et al. 2004b]) except the radioimmunoassay (RIA) utilized here was supplied by ALPCO (Catalog No. 72-TESTO-CT2, ALPCO). Briefly, one testis was isolated from each of three separate male fetuses in each litter and incubated in a humidified atmosphere at 37°C for 3 h in 500μL of M-199 media (phenol red–free; Hazelton Biologics, Inc.) supplemented with 10% dextran-coated charcoal-stripped fetal bovine serum (Hyclone Laboratories) in 24-well plates under gentle agitation. After incubation, media were removed and stored in siliconized microcentrifuge tubes at −80°C until RIA analyses, which were performed according to manufacturer specifications.
Gene expression in fetal testes and fetal/maternal livers was assessed using reverse transcriptase real-time PCR of cDNA synthesized from RNA extracted from sample homogenates. RNA extraction was conducted according to TRIzol Reagent manufacturer specifications using chloroform and isopropanol. Following extraction, RNA was purified using the RNeasy Mini Kit (Catalog No. 74104; Qiagen). RNA concentration and purity (260:280 ratio ≥1.8 ) were determined with a NanoDrop 2000 spectrophotometer (Thermo Scientific). For the fetal testes, a 96-well gene array plate was previously custom designed to contain 89 target genes and 3 housekeeping genes, an intra-assay control, a genomic DNA control, a reverse transcriptase control, and a positive PCR control [see Table S1; SABioscience; ([Hannas et al. 2012])]. […]

**Q.** How did the “fetal testis testosterone production versus controls” value (fetal testis) turn out when O=C(O)C(F)(OC(F)(F)C(F)(F)C(F)(F)F)C(F)(F)F (centres unmarked) [HFPO-DA, Hexafluoropropylene oxide dimer acid] was run?
**A.** not significantly different from controls at any dose

**Q.** What about the Acox3 ([1]; dose order) of the same compound?
**A.** 1.1 fold and 1.3 fold and 1.2 fold and 1.0 fold

**Q.** What about the Acsl3 ([1]; dose order) of the same compound?
**A.** 1.0 fold and 1.1 fold and 1.2 fold and 1.3 fold and 1.4 fold and 1.5 fold

**Q.** And the Acsl4 ([1]; dose order)?
**A.** 1.0 fold and 1.2 fold and 1.5 fold and 1.6 fold and 1.7 fold

**Q.** And the Acsl5 ([1]; dose order)?
**A.** 0.8 fold and 0.9 fold and 1.1 fold and 1.0 fold

**Q.** What about the Apoa1 ([1]; dose order) of the same compound?
**A.** 1.1 fold and 1.2 fold and 0.9 fold and 1.0 fold and 1.5 fold

**Q.** And the Apoa5 ([1]; dose order)?
**A.** 1.4 fold and 1.3 fold and 1.5 fold and 1.6 fold and 1.0 fold

**Q.** What about the Apoc3 ([1]; dose order) of the same compound?
**A.** 1.0 fold and 1.1 fold and 1.3 fold and 0.9 fold and 1.2 fold and 1.4 fold

**Q.** And the Apoe ([1]; dose order)?
**A.** 1.1 fold and 0.9 fold and 1.0 fold and 1.2 fold

**Q.** What about the Aqp7 ([1]; dose order) of the same compound?
**A.** 1.0 fold and 1.3 fold and 1.5 fold and 1.6 fold and 1.7 fold and 1.8 fold

**Q.** And the Cd36 ([1]; dose order)?
**A.** 0.8 fold and 0.9 fold

**Q.** And the Clu ([1]; dose order)?
**A.** 1.1 fold and 1.4 fold and 1.3 fold and 1.2 fold

**Q.** What about the Creb1 ([1]; dose order) of the same compound?
**A.** 1.0 fold and 1.1 fold and 0.9 fold and 0.8 fold

**Q.** And the Crebbp ([1]; dose order)?
**A.** 1.0 fold and 1.1 fold and 0.9 fold

**Q.** And the Cyp27a1 ([1]; dose order)?
**A.** 1.1 fold and 1.0 fold and 0.9 fold

**Q.** And the Dgat1 ([1]; dose order)?
**A.** 1.1 fold and 1.2 fold and 1.4 fold and 1.5 fold

**Q.** And the Eln ([1]; dose order)?
**A.** 1.6 fold and 1.0 fold and 1.3 fold and 1.1 fold and 1.5 fold and 1.4 fold and 1.2 fold

**Q.** What about the Ep300 ([1]; dose order) of the same compound?
**A.** 1.0 fold and 1.2 fold and 0.9 fold

**Q.** And the Fabp2 ([1]; dose order)?
**A.** 0.9 fold and 1.0 fold and 1.1 fold and 0.7 fold

**Q.** And the Fabp3 ([1]; dose order)?
**A.** 1.0 fold and 1.2 fold and 1.1 fold and 0.8 fold

**Q.** What about the Fabp4 ([1]; dose order) of the same compound?
**A.** 1.4 fold and 1.5 fold and 1.2 fold and 0.9 fold and 1.0 fold

**Q.** And the Fabp5 ([1]; dose order)?
**A.** 1.1 fold and 1.0 fold and 1.3 fold and 1.4 fold and 1.5 fold and 1.8 fold

**Q.** And the Fabp7 ([1]; dose order)?
**A.** 1.0 fold and 1.3 fold and 1.4 fold and 1.8 fold and 1.9 fold

**Q.** What about the Fads2 ([1]; dose order) of the same compound?
**A.** 1.1 fold and 1.2 fold and 1.6 fold and 1.8 fold and 2.0 fold and 2.2 fold and 2.1 fold

**Q.** What about the Fgr ([1]; dose order) of the same compound?
**A.** 0.9 fold and 1.3 fold and 1.0 fold and 1.1 fold and 0.8 fold

**Q.** What about the Gk ([1]; dose order) of the same compound?
**A.** 1.4 fold and 1.9 fold and 1.7 fold and 2.0 fold and 1.0 fold and 1.2 fold

**Q.** And the Hif1a ([1]; dose order)?
**A.** 1.0 fold and 1.1 fold and 1.2 fold

**Q.** And the Hspd1 ([1]; dose order)?
**A.** 1.1 fold and 1.0 fold and 1.2 fold and 1.3 fold

**Q.** What about the Ilk ([1]; dose order) of the same compound?
**A.** 1.0 fold and 1.2 fold and 1.1 fold

**Q.** And the Klf10 ([1]; dose order)?
**A.** 1.0 fold and 1.1 fold and 1.5 fold and 1.7 fold and 1.6 fold and 1.4 fold

**Q.** What about the Lpin1 ([1]; dose order) of the same compound?
**A.** 1.0 fold and 1.2 fold and 0.8 fold and 0.9 fold and 1.3 fold

**Q.** And the Lpl ([1]; dose order)?
**A.** 1.0 fold and 1.1 fold and 1.2 fold and 1.4 fold and 1.3 fold and 1.5 fold

**Q.** What about the Med1 ([1]; dose order) of the same compound?
**A.** 1.0 fold and 1.1 fold and 0.9 fold

**Q.** And the Mmp9 ([1]; dose order)?
**A.** 1.2 fold and 1.5 fold and 1.0 fold and 1.1 fold and 0.9 fold

**Q.** And the Ncoa3 ([1]; dose order)?
**A.** 1.0 fold and 1.3 fold and 0.9 fold

**Q.** And the Ncoa6 ([1]; dose order)?
**A.** 1.0 fold and 1.1 fold and 0.9 fold

**Q.** What about the Nr1h3 ([1]; dose order) of the same compound?
**A.** 1.1 fold and 1.2 fold and 1.0 fold

**Q.** And the Pck2 ([1]; dose order)?
**A.** 0.9 fold and 1.1 fold and 1.0 fold

**Q.** What about the Pdpk1 ([1]; dose order) of the same compound?
**A.** 0.9 fold and 1.1 fold and 0.8 fold and 1.0 fold

**Q.** And the Pltp ([1]; dose order)?
**A.** 1.5 fold and 1.0 fold and 1.4 fold and 1.1 fold

**Q.** And the Ppara ([1]; dose order)?
**A.** 1.1 fold and 1.2 fold and 0.9 fold and 1.4 fold and 1.3 fold

**Q.** And the Ppard ([1]; dose order)?
**A.** 0.9 fold and 1.4 fold and 1.1 fold and 1.0 fold and 1.2 fold

**Q.** And the Ppargc1a ([1]; dose order)?
**A.** 0.9 fold and 1.0 fold and 0.7 fold and 0.6 fold and 0.5 fold

**Q.** What about the Ppargc1b ([1]; dose order) of the same compound?
**A.** 1.1 fold and 1.3 fold and 1.2 fold and 0.9 fold and 1.0 fold

**Q.** What about the Pprc1 ([1]; dose order) of the same compound?
**A.** 1.0 fold and 1.1 fold and 0.9 fold and 1.2 fold

**Q.** And the Pten ([1]; dose order)?
**A.** 0.9 fold and 1.0 fold and 1.1 fold and 0.8 fold

**Q.** What about the Rxra ([1]; dose order) of the same compound?
**A.** 1.0 fold and 1.2 fold and 1.1 fold

**Q.** What about the Rxrb ([1]; dose order) of the same compound?
**A.** 1.0 fold and 1.2 fold and 1.1 fold and 0.9 fold

**Q.** What about the Sirt1 ([1]; dose order) of the same compound?
**A.** 0.9 fold and 1.0 fold and 0.8 fold

**Q.** And the Slc27a1 ([1]; dose order)?
**A.** 1.0 fold and 1.1 fold and 0.9 fold

**Q.** And the Slc27a4 ([1]; dose order)?
**A.** 1.0 fold and 1.2 fold and 0.9 fold

**Q.** What about the Slc27a5 ([1]; dose order) of the same compound?
**A.** 1.2 fold and 1.1 fold and 0.9 fold and 1.0 fold

**Q.** What about the Slc27a6 ([1]; dose order) of the same compound?
**A.** 1.4 fold and 1.1 fold and 1.0 fold and 1.3 fold and 1.7 fold and 1.5 fold

**Q.** And the Smarcd3 ([1]; dose order)?
**A.** 1.2 fold and 1.0 fold and 0.9 fold and 1.1 fold

**Q.** What about the Sorbs1 ([1]; dose order) of the same compound?
**A.** 1.2 fold and 1.5 fold and 1.3 fold and 0.9 fold and 1.1 fold and 1.0 fold

**Q.** And the Tgs1 ([1]; dose order)?
**A.** 0.9 fold and 1.0 fold and 0.8 fold

**Q.** And the Txnip ([1]; dose order)?
**A.** 0.9 fold and 1.1 fold and 1.2 fold

**Q.** And the “number of significantly up-regulated PPAR pathway genes” value ([1]; fetal liver, ANOVA p<0.0001)?
**A.** 28 genes

**Q.** What about the “dose with up-regulated PPAR pathway gene expression in maternal and fetal livers” value ([1]; oral GD14-18) of the same compound?
**A.** ≥ 1 mg/kg
